{
  "source": "patent EP0216646B1",
  "about": "“N,N-dimethylethyl amine oxide derivative, process for its preparation and pharmaceutical compositions obtained” (Albert ROLLAND S.A. Société dite, priority 1985, dated 1987)",
  "assay_type_in_all_cases": "in vivo",
  "key": {"[1]": {"test": "apomorphine test (apomorphine-induced hypothermia)", "description": "(§1) Le N-oxyde de 2,2-bis phénoxy NN-diméthyl éthylamine et ses sels possèdent les propriétés caractéristiques des autres anti-dépresseurs, sur les tests pharmacologiques classiques. Ils inhibent l'effet hypothermisant de la réserpine, et de l'apomorphine, ils augmentent la toxicité de groupe induite par injection de yohimbine et ils antagonisent le test du désespoir chez la souris."}, "[2]": {"test": "reserpine-induced hypothermia test", "conditions": "qualitative", "description": "as §1"}, "souris [3]": {"tested_on": "souris", "test": "despair test in the mouse", "conditions": "qualitative", "description": "as §1"}, "souris [4]": {"tested_on": "souris", "test": "acute toxicity in the mouse (median lethal dose)", "description": "(§2) Les sels de 2,2-bis phénoxy NN-diméthyl éthylamine sont décrits comme possédant des propriétés anti-dépressives."}, "[5]": {"test": "yohimbine-induced group toxicity", "description": "as §1"}, "[6]": {"test": "acute toxicity in the mouse (median lethal dose)", "conditions": "in vivo; acute toxicity, mouse; read-out: dose léthale moyenne", "description": "as §2"}, "[7]": {"conditions": "compared with 2,2-bis phénoxy NN-diméthyl éthylamine"}},
  "data": [
    {"compound": "C[N+](C)([O-])CC(Oc1ccccc1)Oc1ccccc1", "note": "[N-oxydede 2,2-bis phénoxy NN-diméthyl éthylamine]", "values": [
      {"measurement": "action antagoniste sur le test à l'apomorphine", "setting": "[1]; [7]", "value": "nettement plus marquées"},
      {"measurement": "effet hypothermisant de l'apomorphine", "setting": "[1]; qualitative", "value": "inhibent"},
      {"measurement": "effet hypothermisant de la réserpine", "setting": "[2]", "value": "inhibent"},
      {"measurement": "test du désespoir chez la souris", "setting": "souris [3]", "value": "antagonisent"},
      {"measurement": "dose léthale moyenne", "setting": "souris [4]; acute toxicity, mouse", "value": "il n'a pas été possible de déterminer"},
      {"measurement": "toxicité", "setting": "souris [4]; qualitative statement", "value": "très faible"},
      {"measurement": "action positive vis-à-vis de la toxicité de groupe à la yohimbine", "setting": "[5]; [7]", "value": "nettement plus marquées"},
      {"measurement": "toxicité de groupe induite par injection de yohimbine", "setting": "[5]; qualitative", "value": "augmentent"}
    ]},
    {"compound": "CN(C)CC(Oc1ccccc1)Oc1ccccc1", "note": "[2,2-bis phénoxy NN-diméthyl éthylamine, reference compound]", "values": [
      {"measurement": "LD50", "setting": "[6]", "value": "~800", "unit": "mg/kg"}
    ]}
  ]
}
